Test results: the NIST ThermoML archive (doi:10.1016/j.fluid.2015.08.007)
Values joined by “and” are separate entries in the source; they are usually repeats but may differ in a detail not shown here. Equal entries are not always repeated. Numbers after ± are expanded uncertainties.

Settings: Crystal 1; DTA

Compound	Normal melting temperature
CCCC[N+]1(C)CCCC1.[Br-] [1-butyl-1-methylpyrrolidinium bromide]	204 ± 2 °C

Same assay, conditions: Crystal; DTA

Compound	Normal melting temperature
CCCC[N+]1(C)CCCC1.[Br-] [1-butyl-1-methylpyrrolidinium bromide]	204 ± 2 °C
CCCC[N+]1(C)CCCC1.F[B-](F)(F)F [1-butyl-1-methylpyrrolidinium tetrafluoroborate]	152 ± 2 °C and 151 ± 2 °C
CC[N+]1(C)CCCC1.O=S(=O)([N-]S(=O)(=O)C(F)(F)F)C(F)(F)F	91 ± 2 °C
CC[N+]1(C)CCCC1.F[B-](F)(F)F [1-ethyl-1-methylpyrrolidinium tetrafluoroborate]	66 ± 2 °C
CCCC[N+]1(C)CCCC1.[Cl-] [1-butyl-1-methylpyrrolidinium chloride]	201 ± 2 °C and 204 ± 2 °C
